# According to patent publication US9421237B2, “Tripeptide boronic acid or boronic ester, preparative method and use thereof” (PEKING UNIVERSITY, priority 2009, dated 2016):
# Legend:
# [1] = test system: Bel-7402 human hepatocarcinoma cell; test: Preliminary anti-tumor screening in vitro, SRB method; type: cell-based; set-up: key to Test results: +++: inhibition rates at three doses are greater than 50%; ++: inhibition rates at two doses are greater than 50%; +: inhibition rate at one dose is greater than 50%; conditions: Bel-7402, SRB; for Test results: number of doses with inhibition > 50%; for inhibition at 0.05 µM / inhibition at 0.5 µM / inhibition at 5 µM: Homo sapiens, read-out: Inhibition rate %
# Experimental: (§1) The test methods used in this test example is the routine method for anti-tumor activities test in pharmaceutical area, for example, referring to the following reference: (J. Immunol Method, 1983, 65, 55).
# (§2) Test models: A: MTT method (HL-60 human leukemia); B: SRB method (BGC-823 human gastric cancer); C: SRB method (Bel-7402 human hepatocarcinoma); D: SRB method (KB human nasopharyngeal carcinoma).
# (§3) The aforesaid tests were carried out with the compounds of Examples 1-26 in the present invention, test results are shown in Tables 2-5.
# [2] = test system: KB human nasopharyngeal carcinoma cell; test: as above; type: cell-based; set-up: key to Test results: +++: inhibition rates at three doses are greater than 50%; ++: inhibition rates at two doses are greater than 50%; +: inhibition rate at one dose is greater than 50%; conditions: for inhibition at 0.05 µM / inhibition at 0.5 µM / inhibition at 5 µM: Homo sapiens, read-out: Inhibition rate %; for Test results: number of doses with inhibition > 50%
# Experimental: as §1, §2, §3
# [3] = test system: BGC-823 human gastric cancer cell; test: as above; type: cell-based; set-up: key to Test results: +++: inhibition rates at three doses are greater than 50%; ++: inhibition rates at two doses are greater than 50%; +: inhibition rate at one dose is greater than 50%; conditions: BGC-823, SRB; for Test results: number of doses with inhibition > 50%; for inhibition at 0.05 µM / inhibition at 0.5 µM / inhibition at 5 µM: Homo sapiens, read-out: Inhibition rate %
# Experimental: as §1, §2, §3
# [4] = test system: HL-60 human leukemia cell; test: Preliminary anti-tumor screening in vitro, MTT method; type: cell-based; set-up: key to Test results: +++: inhibition rates at three doses are greater than 50%; ++: inhibition rates at two doses are greater than 50%; +: inhibition rate at one dose is greater than 50%; conditions: HL-60, MTT; for Test results: number of doses with inhibition > 50%; for inhibition at 0.05 µM / inhibition at 0.5 µM / inhibition at 5 µM: Homo sapiens, read-out: Inhibition rate %
# Experimental: as §1, §2, §3
# [5] = biological target: T1, 20S proteasome extracted from rat liver, peptidyl-glutamyl-peptide-hydrolyzing (PGPH) enzyme activity (Rattus norvegicus, UniProt P28073+Q9JHW0); test: Proteasome inhibition, PGPH activity, fluorescent peptide Z-leu-leu-Glu-βNA; type: biochemical; conditions: rat liver 20S proteasome, 37° C., 1 h
# T1 construct: 20S proteasome extracted from rat liver; from tissue; host or cells: rat liver
# Experimental: (§4) The activities of the proteasome were assayed using fluorescent peptides: Suc-leu-leu-Val-Tyr-AMC (Suc represents succinyl, and AMC represents 7-amino-4-methylcoumarin, purchased from SIGMA) for determining chymotryptic-like (CT-L) activity; Z-Ala-Arg-Arg-AMC (Z represents benzyloxycarbonyl, purchased from Calbiochem) for determining trypsin-like (TL) activity; and Z-leu-leu-Glu-βNA (βNA represents β-naphtylamide, purchased from SIGMA) for determining peptidyl-glutamyl-peptide-hydrolyzing (PGPH) enzyme activity.
# (§5) Method for the aforesaid activity assays is as follows: 1 μg of 20S proteasome extracted from rat liver was incubated with a 100 μL solution containing various concentrations of compounds, 50 μM fluorescent peptides and 20 mM Tris-HCl at 37° C. for 1 h, respectively. The fluorescence released from AMC and RNA reagents was measured by a spectrofluorimeter Fluostar OPTIMA and BMG Germany at excitation/emission wavelengths of 380/440 nm and 335/410 nm, respectively. 0.1% DMSO was used as a solvent control. Compared with the fluorescence of solvent control, an inhibition rate was calculated. Said assays used anticancer drug bortezomib (leukemia drug), namely PS341 as compound for positive control.
# [6] = biological target: T2, 20S proteasome extracted from rat liver, chymotryptic-like (CT-L) activity (Rattus norvegicus, UniProt P18421+P28075); test: Proteasome inhibition, chymotryptic-like (CT-L) activity, fluorescent peptide Suc-leu-leu-Val-Tyr-AMC; type: biochemical; conditions: rat liver 20S proteasome, 37° C., 1 h
# T2 construct: 20S proteasome extracted from rat liver; from tissue; host or cells: rat liver
# Experimental: as §4
# as §5, with “calculated.” for “calculated. Said assays used anticancer drug bortezomib (leukemia drug), namely PS341 as compound for positive control.”
# [7] = biological target: T3, 20S proteasome extracted from rat liver, trypsin-like (TL) activity (Rattus norvegicus, UniProt P40112+Q9JHW0); test: Proteasome inhibition, trypsin-like (TL) activity, fluorescent peptide Z-Ala-Arg-Arg-AMC; type: biochemical; conditions: rat liver 20S proteasome, 37° C., 1 h; read-out: T-L (IC50)
# T3 construct: 20S proteasome extracted from rat liver; from tissue; host or cells: rat liver
# Experimental: as §4, §5
# [8] = test system: HL-60 (promyelocytic leukemia cell strain); test: In vitro anti-tumor activity (IC50), standard MTT method; type: cell-based; conditions: Homo sapiens, 72 h, average of three determinations
# Experimental: (§6) HL-60, BXPC-3 and U266 were obtained from the American Type Culture Collection (Manassas, Va.), and BGC-823 (human gastric carcinoma cell strain) was obtained from China Pharmaceutical University.
# (§7) Test methods: HL-60 cells were cultured in IMDM medium containing 20% fetal bovine serum at 37° C. in 5% CO2; BGC-823 cells and BXPC-3 cells were cultured in RPMI1640 medium containing 10% fetal bovine serum at 37° C. in 5% CO2; U266 cells were cultured in RPMI1640 medium containing 15% fetal bovine serum at 37° C. in 5% CO2.
# (§8) The cell growth was measured by the standard MTT method. A dispersions (150 μL, containing 3000 cells) medium was added into each well of a 96-well plate and allowed to grow, after 24 h, ten kinds of medium (50 μL) containing different concentrations of drugs were added into the corresponding wells, and continued to incubate for 72 h. Then a solution containing 5 mg/ml MTT (20 μL) was added into each well and incubated for another 4 h at 37° C. The plate was then centrifugated at 1000 rpm at 4° C. for 5 min, and the medium in upper layer was carefully discarded. The precipitates were dissolved in 100 μL of DMSO, and absorbance was read with an Infinite M200 (Tecan, Austria) microplate reader at 540 nm.
# (§9) The result was expressed as IC50 value, which is the average value of three independent determinations.
# [9] = test system: BGC-823 (human gastric carcinoma cell strain); test: as above; type: cell-based; conditions: 72 h, average of three determinations
# Experimental: as §6, §7, §8, §9
# [10] = test system: U266 (multiple myeloma cell strain); test: as above; type: cell-based; conditions: Homo sapiens, U-266, 72 h, average of three determinations
# Experimental: as §6, §7, §8, §9
# [11] = test system: BXPC-3 (human pancreatic cancer cell strain); test: as above; type: cell-based; conditions: 72 h, average of three determinations
# Experimental: as §6, §7, §8, §9
Compound,melting point [°C],Test results [1],inhibition at 0.05 µM [1] [%],inhibition at 0.5 µM [1] [%],inhibition at 5 µM [1] [%],inhibition at 0.05 µM [2] [%],inhibition at 0.5 µM [2] [%],inhibition at 5 µM [2] [%],Test results [2],Test results [3],inhibition at 0.05 µM [3] [%],inhibition at 0.5 µM [3] [%],inhibition at 5 µM [3] [%],Test results [4],inhibition at 0.05 µM [4] [%],inhibition at 0.5 µM [4] [%],inhibition at 5 µM [4] [%],IC50 [5] [nM],IC50 [6] [nM],IC50 [7] [nM],further results
"CC(C)C[C@H](NC(=O)[C@H](Cc1ccccc1)NC(=O)[C@H](Cc1ccc2ccccc2c1)NC(=O)c1cnccn1)B1OC2CC3C[C@@H](C3(C)C)[C@]2(C)O1 (stereo partly drawn) [Compound 5b, Pinanediol N-pyrazineformyl-L-naphthylalanyl-L-phenylalanyl-L-leucine Borate]",98 to 100,++,35.9,66.7,91,40.4,95.1,95.8,++,+++,68.6,94.8,96.5,++,21.1,88.1,88.1,> 20,0.22 ± 0.106,> 20,–
"CC(C)C[C@H](NC(=O)[C@H](Cc1ccc2ccccc2c1)NC(=O)[C@H](CC(C)C)NC(=O)c1cnccn1)B1OC2CC3C[C@@H](C3(C)C)[C@]2(C)O1 (stereo partly drawn) [Compound 5f, Pinanediol N-pyrazineformyl-L-leucyl-L-naphthylalanyl-L-leucineborate]",140 to 142,++,3.18,83.9,92.3,3.74,93.4,95.3,++,++,38.3,89.2,83,++,-19.9,81.9,88.6,3.91 ± 1.72,0.37 ± 0.141,> 20,–
"CC(C)C[C@H](NC(=O)[C@H](Cc1ccccc1)NC(=O)[C@H](Cc1ccc(O)cc1)NC(=O)c1cnccn1)B1OC2CC3C[C@@H](C3(C)C)[C@]2(C)O1 (stereo partly drawn) [Compound 5d, Pinanediol N-pyrazineformyl-L-tyrosyl-L-phenylalanyl-L-leucine Borate]",90 to 92,++,5.52,52,93.1,0.83,73.2,94.8,++,++,23.6,93.6,97.8,+,-11.8,35.9,88.9,4.76 ± 1.31,0.295 ± 0.049,> 20,–
"CC(C)C[C@H](NC(=O)[C@H](Cc1ccc(O)cc1)NC(=O)[C@H](Cc1ccccc1)NC(=O)c1cnccn1)B1OC2CC3C[C@@H](C3(C)C)[C@]2(C)O1 (stereo partly drawn) [Compound 5c, Pinanediol N-pyrazineformyl-L-phenylalanyl-L-tyrosyl-L-leucine Borate]",119 to 120,+,4.18,16.6,91.1,1.84,29.8,91.4,+,++,3.19,56,96.1,+,-10.5,1.94,99,5.39 ± 0.368,0.335 ± 0.031,> 20,–
"CC(C)C[C@H](NC(=O)[C@H](CC(C)C)NC(=O)[C@H](Cc1ccc2ccccc2c1)NC(=O)c1cnccn1)B(O)O [Compound 6m, N-pyrazineformyl-L-naphthylalanyl-L-leucyl-L-leucine Boronic Acid]",–,++,30.3,57.7,95.2,40.8,86.4,94.7,++,+++,60.3,81.9,97,++,4.61,85.2,87.8,8.33 ± 2.49,0.22 ± 0.07,> 20,IC50 [8]: 15 nM; IC50 [9]: 1720 nM; IC50 [10]: 120 nM; IC50 [11]: 43.5 nM
"CC(C)C[C@H](NC(=O)[C@H](Cc1ccccc1)NC(=O)[C@H](Cc1ccccc1)NC(=O)c1cnccn1)B1OC2CC3C[C@@H](C3(C)C)[C@]2(C)O1 (stereo partly drawn) [Compound 5a, Pinanediol N-pyrazineformyl-L-phenylalanyl-L-phenylalanyl-L-leucine Borate]",78 to 80,–,–,–,–,–,–,–,–,–,–,–,–,–,–,–,–,8.33 ± 2.49,0.402 ± 0.024,> 20,–
